3 compounds from article PMC9325274, “In Vitro and In Silico Investigation of Diterpenoid Alkaloids Isolated from Delphinium chitralense” (Molecules, 2022) can be followed below.

Assay [1] deals with T1, AChE (Electric-eel EC 3.1.1.7) (Electrophorus electricus, UniProt O42275).
T1 construct: purchased Sigma-Aldrich (St. Louis, MO, USA)
Nature of the assay: biochemical.

Assay [2] concerns the target T2, BChE (horse serum EC 3.1.1.8) (Equus caballus, UniProt P81908).
T2 construct: purchased Sigma-Aldrich (St. Louis, MO, USA); host or cells: horse serum
The experiment in a line: biochemical.

Where [3] appears, read: read-out: AChE ± SEM (IC50); Electric-eel AChE; SEM of five assays.
Where [4] appears, read: read-out: BChE ± SEM (IC50), SEM of five assays.

Structures are written as SMILES. Where two headings read alike, the source gives them in different places.

T1 sequence (O42275 24-633): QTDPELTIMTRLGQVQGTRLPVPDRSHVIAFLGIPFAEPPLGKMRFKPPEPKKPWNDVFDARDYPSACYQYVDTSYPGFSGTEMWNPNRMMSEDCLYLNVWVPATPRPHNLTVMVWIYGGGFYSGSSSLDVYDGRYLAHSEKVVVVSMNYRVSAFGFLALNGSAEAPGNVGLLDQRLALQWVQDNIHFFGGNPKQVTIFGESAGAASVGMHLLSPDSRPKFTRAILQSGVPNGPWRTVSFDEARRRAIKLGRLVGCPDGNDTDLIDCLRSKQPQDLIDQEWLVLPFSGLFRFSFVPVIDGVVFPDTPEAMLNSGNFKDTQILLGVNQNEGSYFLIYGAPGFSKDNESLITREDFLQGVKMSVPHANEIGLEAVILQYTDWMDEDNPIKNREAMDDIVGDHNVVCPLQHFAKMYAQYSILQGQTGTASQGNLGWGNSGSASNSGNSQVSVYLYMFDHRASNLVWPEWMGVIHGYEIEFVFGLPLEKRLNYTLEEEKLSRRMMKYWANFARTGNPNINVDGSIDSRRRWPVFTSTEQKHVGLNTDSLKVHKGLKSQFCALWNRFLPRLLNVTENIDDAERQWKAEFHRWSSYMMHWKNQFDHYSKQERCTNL
T2 sequence (P81908 whole entry): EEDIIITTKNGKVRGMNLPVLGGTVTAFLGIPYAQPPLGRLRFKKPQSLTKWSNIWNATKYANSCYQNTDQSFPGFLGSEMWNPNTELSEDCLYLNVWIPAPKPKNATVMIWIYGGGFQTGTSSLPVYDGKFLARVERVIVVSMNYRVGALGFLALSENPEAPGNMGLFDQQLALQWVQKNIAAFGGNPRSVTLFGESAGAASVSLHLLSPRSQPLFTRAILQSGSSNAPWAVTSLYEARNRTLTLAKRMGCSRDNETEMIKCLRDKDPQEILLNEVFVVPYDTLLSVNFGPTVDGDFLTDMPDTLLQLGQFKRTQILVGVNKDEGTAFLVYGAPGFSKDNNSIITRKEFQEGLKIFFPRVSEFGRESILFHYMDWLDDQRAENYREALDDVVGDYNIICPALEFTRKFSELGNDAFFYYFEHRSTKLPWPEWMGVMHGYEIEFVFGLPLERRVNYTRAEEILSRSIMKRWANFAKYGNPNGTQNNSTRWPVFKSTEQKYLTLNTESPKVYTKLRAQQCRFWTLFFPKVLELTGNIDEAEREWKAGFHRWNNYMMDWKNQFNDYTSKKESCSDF

As to `C=C1CC23CC(=O)C4C5(C)CC(O)C(O)C46C(C2C(=O)C1CC36O)N(C)C5` (stereo not drawn) [Compound 1, 9β-hydroxy hetidine], the IC50 in assay [1] (Electric-eel AChE; SEM of five assays; read-out: AChE ± SEM (IC50)) was found to be 13.9 ± 0.35 µM; in assay [2] (SEM of five assays, read-out: BChE ± SEM (IC50)), 28.2 ± 0.92 µM. For the same compound, the “Type of Inhibition” value in assay [1] (stated for inhibition of AChE and BChE; listed as Chitralinine A) was “Competitive”.

As to `C=C1CC23CC(=O)C4C56C(C2C(=O)C1(O)C(O)C35O)N(C)C(O)[C@]4(C)CC(O)[C@@H]6O` (stereo partly drawn) [Compound 2, 9,11,12,19β- tetrahydoxy hetidine], the IC50 in assay [1] (setting [3]) worked out at 11.64 ± 0.08 µM; in assay [2] (setting [4]), 24.3 ± 0.33 µM. In addition, the “Type of Inhibition” value in assay [1] (stated for inhibition of AChE and BChE; listed as Chitralinine B) is “Competitive”.

Regarding `C=C1CC23CC(=O)C4C5(C)CC(O)C(O)C46C(C2CC1(O)C(O)C36O)N(C)C5O` (stereo not drawn) [Compound 3, 1α, 2, 9,11,12,19β-hexahydoxy atisinone], the values for the IC50 in assay [1] (setting [3]) and in assay [2] (setting [4]) were 12.1 ± 0.82 µM and 26.35 ± 0.06 µM, respectively. Besides, the “Type of Inhibition” value in assay [1] (stated for inhibition of AChE and BChE; listed as Chitralinine-C) was “Competitive”.

Broadly, the IC50 is the concentration needed to halve the response being measured.
